From US20250268894A1, “MACROCYCLE COMPOUNDS FOR THE TREATMENT OF CANCER” (Hoffmann-La Roche Inc., priority 2022, published 2025)

Key:
KRAS G12D-BRAF complex = KRAS G12D-BRAF complex (Homo sapiens (Human), UniProt P01116+P62937, G12D); experiment: KRAS-BRAF with CYPA (500 nM) interaction assay (TR-FRET), G12D; format: biochemical
In short: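 TR-FRET read of compound- or compound-CYPA-driven disruption of BRAF binding by KRAS G12C, G12D or G12V, with CYPA at 500 nM. Compounds tested as 16-point 3-fold dilutions from 10 μM final, incubated 3 hours. Ex320/Em 665/615 nm ratio drop relative to DMSO wells marks disruption.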

[1] = tested on: Miapaca-2 KRAS G12C + R68S cells; experiment: Stable KRAS mutant cell line viability assay (CellTiter-Glo), G12C + R68S; format: cell-based; settings: Homo sapiens, MIA PaCa-2, 72 h, Miapaca-2 mutant cells, 3 d
From the text: (§1) The aim of the study was to determine the potency and efficacy of compounds for cell proliferation using CellTiter-Glo® (CTG) Luminescent Cell Viability Assay (Promega Corp., Madison, WI). We cloned […] KRAS^G12C variant sequences with secondary mutations (V8A, V9Y, S17E, T58I, A59T, S65W, R68S, D69P, M72I, D92R, H95N, Y96D, Q99F, Q99W, Y96H, and F156L) into the Miapaca-2. Totally 14 stable Miapaca-2 mutant cell lines were established through lentivirus infection. For the cell viability assay, cells were dosed with compounds in a 9-point dose-response using a 4 fold dilution series at a top dose of 10 μM. KRAS mutant cells were maintained in DMEM+10% FBS+2.5% HI Horse serum+1% PS+1 μg/mL Puromycin and seeded into 96-well plates at 800-1,500 cells per well 24 h before compound addition and then incubated with compound for 3 d before assaying viability (CellTiter-Glo, Promega). Assays were performed in biological duplicates. Nonlinear regression curves were fitted using Xfit. IC50 (absolute IC50) is the dose at which the estimated viability is 50% relative to untreated wells.

[2] = tested on: Miapaca-2 KRAS G12C + Y96D cells; experiment: Stable KRAS mutant cell line viability assay (CellTiter-Glo), G12C + Y96D; format: cell-based; settings: Homo sapiens, MIA PaCa-2, 72 h, Miapaca-2 mutant cells, 3 d
From the text: as §1

[3] = tested on: Miapaca-2 KRAS G12C + D60P cells; experiment: Stable KRAS mutant cell line viability assay (CellTiter-Glo), G12C + D60P; format: cell-based; settings: Homo sapiens, MIA PaCa-2, 72 h, Miapaca-2 mutant cells, 3 d
From the text: as §1

[4] = tested on: Miapaca-2 KRAS G12C + D92R cells; experiment: Stable KRAS mutant cell line viability assay (CellTiter-Glo), G12C + D92R; format: cell-based; settings: Homo sapiens, MIA PaCa-2, 72 h, Miapaca-2 mutant cells, 3 d
From the text: as §1

[5] = tested on: Miapaca-2 KRAS G12C + Q99W cells; experiment: Stable KRAS mutant cell line viability assay (CellTiter-Glo), G12C + Q99W; format: cell-based; settings: Homo sapiens, MIA PaCa-2, 72 h, Miapaca-2 mutant cells, 3 d
From the text: as §1

[6] = tested on: Miapaca-2 KRAS G12C + F156L cells; experiment: Stable KRAS mutant cell line viability assay (CellTiter-Glo), G12C + F156L; format: cell-based; settings: Homo sapiens, MIA PaCa-2, 72 h, Miapaca-2 mutant cells, 3 d
From the text: as §1

[7] = tested on: phosphorylation of ERK, KRAS G12V in SW620 cells; experiment: pERK inhibition assay, KRAS G12V in SW620; format: cell-based, human; settings: Homo sapiens, SW-620, SW620, 4 hours
In short: (§2)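 NCI-H358 (G12C), AGS (G12D) and SW620 (G12V) cells in RPMI-1640/10% FBS, plated overnight, then treated 4 h with compound (0.5% DMSO final). Fixed, methanol-permeabilized; phospho-ERK detected by in-cell ELISA (anti-pERK, HRP secondary, TMB, OD450). IC50 from 4-parameter sigmoidal fit.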

human hepatocytes = experiment: Human hepatocyte stability assay; format: in vitro ADME; settings: 1 μM compound, human hepatocyte suspension 1×10^6 cells/mL
Procedure: The hepatocyte stability assay measures the rate of disappearance of a compound from incubations with cryopreserved suspension hepatocytes from human. Positive controls, including Midazolam, Raloxifene and Dextromethorphan, are included in every experiment. Incubations consist of 1 μM tested compound and suspension of human hepatocytes (1×10^6 cells/mL) in supplemented Williams' E Medium with 10% FBS and 0.5% Penicillin-streptomycin. The hepatocyte suspension was incubated with intermittent shaking 900 rpm at 37° C., in a 5% CO2 incubator. The reaction was stopped by adding methanol containing internal standard (2 μM Tolbutamide) at 2, 10, 20, 40, 60 and 120 minutes after compound addition, depletion of the parent compound was monitored by LC-MS/MS analysis.

[8] = tested on: Miapaca-2 KRAS G12C + M72I cells; experiment: Stable KRAS mutant cell line viability assay (CellTiter-Glo), G12C + M72I; format: cell-based; settings: Homo sapiens, MIA PaCa-2, 72 h, Miapaca-2 mutant cells, 3 d
From the text: as §1

[9] = tested on: Miapaca-2 KRAS G12C + V8A cells; experiment: Stable KRAS mutant cell line viability assay (CellTiter-Glo), G12C + V8A; format: cell-based; settings: Homo sapiens, MIA PaCa-2, 72 h, Miapaca-2 mutant cells, 3 d
From the text: as §1

[10] = tested on: phosphorylation of ERK, KRAS G12C in NCI-H358 cells; experiment: pERK inhibition assay, KRAS G12C in NCI-H358 cells; format: cell-based, human; settings: Homo sapiens, NCI-H358, 4 hours
In short: as §2

Sequence of KRAS G12D-BRAF complex (P01116-2 other isoform, or with tags, fused parts or gaps G12D): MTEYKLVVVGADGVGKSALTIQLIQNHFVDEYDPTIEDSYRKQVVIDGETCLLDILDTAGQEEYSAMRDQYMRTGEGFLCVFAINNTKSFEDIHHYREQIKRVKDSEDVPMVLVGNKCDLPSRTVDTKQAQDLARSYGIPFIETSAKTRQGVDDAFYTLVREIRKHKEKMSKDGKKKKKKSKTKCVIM
Sequence of KRAS G12D-BRAF complex (P62937 whole entry): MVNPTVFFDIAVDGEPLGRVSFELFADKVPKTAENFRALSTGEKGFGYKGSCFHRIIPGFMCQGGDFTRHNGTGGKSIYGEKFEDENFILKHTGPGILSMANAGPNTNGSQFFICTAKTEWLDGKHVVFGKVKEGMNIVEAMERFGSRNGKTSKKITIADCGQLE

## CO[C@@H](C)c1ncc(N2CCN(CC(F)(F)F)CC2)cc1-c1c2c3cc(ccc3n1CC(F)(F)F)-c1csc(n1)C[C@H](NC(=O)[C@H](C(C)C)N(C)C(=O)N1CCOCC1)C(=O)N1CCC[C@H](N1)C(=O)OCC(C)(C)C2 (atropisomer, axis not shown; (M)) [Example 6]
KRAS G12D-BRAF complex
  IC50: 71 nM
[1]
  IC50: 34 nM
[2]
  IC50: 7 nM
[3]
  IC50: 8 nM
[4]
  IC50: 5 nM
[5]
  IC50: 7 nM
[6]
  IC50: 8 nM
[7]
  IC50: 2 nM
Human hepatocytes
  CL_hep (Human): <2.4 mL/min/kg
[8]
  IC50: 3 nM
[9]
  IC50: 2 nM
[10]
  IC50: 2 nM
